Experimental data reported in patent publication US20230116972A1, “CD38 MODULATORS AND METHODS OF USE THEREOF” (Cytokinetics, Inc., priority 2021, published 2023).

Tests used:
[1] = biological target: T1, mouse CD38 (Mus musculus, UniProt P56528); test: mouse recombinant CD38 enzyme assay (hydrolysis of NAD+); type: biochemical; conditions: read-out: mCD38 BioChem IC50
T1 sequence (P56528 1-304): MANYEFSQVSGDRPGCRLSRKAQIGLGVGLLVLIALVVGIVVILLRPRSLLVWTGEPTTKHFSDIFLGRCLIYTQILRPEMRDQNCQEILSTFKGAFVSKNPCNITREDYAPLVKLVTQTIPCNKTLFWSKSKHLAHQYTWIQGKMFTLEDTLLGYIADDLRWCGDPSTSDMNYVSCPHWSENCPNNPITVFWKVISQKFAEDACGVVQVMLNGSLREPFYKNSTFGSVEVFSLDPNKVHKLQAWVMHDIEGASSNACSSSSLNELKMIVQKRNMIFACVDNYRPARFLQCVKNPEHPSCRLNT
Outline: (§1)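 Residual NAD+ after 60 min of cell-free hydrolysis by recombinant mouse or human CD38 at ambient temperature, measured over a dose range. Detection used ADH conversion to NADH, then diaphorase-coupled resazurin-to-resorufin fluorescence (Ex/Em 540/590 nm).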

[2] = biological target: T2, human CD38 (Homo sapiens, UniProt P28907); test: human recombinant CD38 enzyme assay (hydrolysis of NAD+); type: biochemical; conditions: human recombinant CD38, 0.4 nM enzyme, 62.5 μM NAD+; read-out: hCD38 BioChem IC50
T2 sequence (P28907 1-300): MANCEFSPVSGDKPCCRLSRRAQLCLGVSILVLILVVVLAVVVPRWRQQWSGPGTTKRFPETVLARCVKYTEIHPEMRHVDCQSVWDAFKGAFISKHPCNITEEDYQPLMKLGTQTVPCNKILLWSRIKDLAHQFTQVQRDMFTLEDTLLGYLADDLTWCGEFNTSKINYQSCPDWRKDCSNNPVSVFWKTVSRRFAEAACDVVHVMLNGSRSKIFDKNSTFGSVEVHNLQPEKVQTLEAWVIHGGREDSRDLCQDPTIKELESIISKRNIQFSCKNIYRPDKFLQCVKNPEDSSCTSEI
Outline: as §1

[3] = biological target: T3, endogenous CD38 in HL60 cells (Homo sapiens, UniProt P28907); test: cellular CD38 assay in HL60 cells (cellular NAD levels); type: cell-based; conditions: all-trans retinoic acid, 24 hours, read-out: hCD38 HL60 ATRA NAD Cell Diaphorase IC50
T3 construct: endogenous in cells; host or cells: HL60 (leukemic cells, treated with all-trans retinoic acid)
T3 sequence (P28907 1-300): T2 sequence (P28907 1-300)
Outline: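 Endogenous CD38 inhibition is inferred from NAD levels in HL60 cells after 24 h compound exposure at 20000 cells per well. A lytic cycling readout (0.2 U/mL diaphorase, 0.8 U/mL alcohol dehydrogenase, resazurin, FMN, ethanol, 0.2% Triton X-100, Tris/EDTA pH 8.4) ran 60 min at ambient temperature. Resorufin fluorescence was read at 540/590 nm.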

IC50 [1] [nM] | IC50 [2] [nM] | IC50 [3] [nM] | Compound
9 | 4 | 409 | O=C(Nc1ccc(C(F)(F)F)nc1)c1ccnc(-n2ccnc2)n1 [Compound 67, 2-(1H-imidazol-1-yl)-N-(6-(trifluoromethyl)pyridin-3-yl)pyrimidine-4-carboxamide]
270 | 252 | 12500 | O=C(NC1CCN(c2ccccc2)CC1)c1nccc(-n2ccnc2)n1 [Compound 263, 4-(1H-imidazol-1-yl)-N-(1-phenylpiperidin-4-yl)pyrimidine-2-carboxamide]
10 | 3 | 349 | Cn1cncc1-c1ccnc(C(=O)Nc2ccc(C(F)(F)F)nc2)n1 [Compound 74, 4-(1-methyl-1H-imidazol-5-yl)-N-(6-(trifluoromethyl)pyridin-3-yl)pyrimidine-2-carboxamide]
11.6 | 25.2 | 2220 | COc1ccc([C@H]2C[C@H](NC(=O)c3nccc(-c4cncn4C)n3)C2)cc1 [Compound 218, N-((1r,3r)-3-(4-methoxyphenyl)cyclobutyl)-4-(1-methyl-1H-imidazol-5-yl)pyrimidine-2-carboxamide]
1.2 | 8.1 | 3730 | Cn1cncc1-c1nc(C(=O)NC2CC3(COC3)C2)cc(C2CCC(F)(F)CC2)n1 [Compound 286, 6-(4,4-difluorocyclohexyl)-2-(1-methyl-1H-imidazol-5-yl)-N-(2-oxaspiro[3.3]heptan-6-yl)pyrimidine-4-carboxamide]
1.3 | 2.6 | 317 | COc1cc(-c2cncn2C)nc(C(=O)Nc2ccc(C(F)F)nc2)n1 [Compound 201, N-(6-(difluoromethyl)pyridin-3-yl)-4-methoxy-6-(1-methyl-1H-imidazol-5-yl)pyrimidine-2-carboxamide]
9 | 72.2 | 10200 | COCCO[C@H]1CC[C@H](NC(=O)c2nc(OC)cc(-c3cncn3C)n2)CC1 [Compound 231, 4-methoxy-N-((1r,4r)-4-(2-methoxyethoxy)cyclohexyl)-6-(1-methyl-1H-imidazol-5-yl)pyrimidine-2-carboxamide]
59.7 | 277 | 11000 | Cn1cncc1-c1ccnc(C(=O)N[C@H]2C[C@H](C(C)(C)O)C2)n1 [Compound 284, N-((1r,3r)-3-(2-hydroxypropan-2-yl)cyclobutyl)-4-(1-methyl-1H-imidazol-5-yl)pyrimidine-2-carboxamide]
14 | 85 | 2830 | O=C(N[C@H]1CC[C@H](O)CC1)c1cccc(-n2ccnc2)n1 [Compound 30, N-(4-hydroxycyclohexyl)-6-(1H-imidazol-1-yl)picolinamide]
2 | 8 | 1250 | CC(C)c1cc(C(=O)Nc2ccc(C(F)F)nc2)nc(-c2cncn2C)n1 [Compound 173, N-(6-(difluoromethyl)pyridin-3-yl)-6-isopropyl-2-(1-methyl-1H-imidazol-5-yl)pyrimidine-4-carboxamide]
24 | 80 | 1670 | Cn1cncc1-c1cncc(C(=O)NC2CC3(C2)CC(F)(F)C3)n1 [Compound 105, N-(6,6-difluorospiro[3.3]heptan-2-yl)-6-(1-methyl-1H-imidazol-5-yl)pyrazine-2-carboxamide]
2 | 9 | 1290 | COC(=O)[C@H]1CC[C@H](NC(=O)c2ccnc(-c3cncn3C)n2)CC1 [Compound 107, methyl (1r,4r)-4-(2-(1-methyl-1H-imidazol-5-yl)pyrimidine-4-carboxamido)cyclohexane-1-carboxylate]
234 | 1090 | 6780 | O=C(Nc1cncc(F)c1)c1cc(-n2ccnc2)ccn1 [Compound 3, N-(5-fluoropyridin-3-yl)-4-(1H-imidazol-1-yl)picolinamide]
19 | 4 | 295 | O=C(Nc1ccc(C(F)(F)F)nc1)c1nccc(-n2ccnc2)n1 [Compound 72, 4-(1H-imidazol-1-yl)-N-(6-(trifluoromethyl)pyridin-3-yl)pyrimidine-2-carboxamide]
47 | 313 | 8650 | CC(C)c1cc(C(=O)N[C@H]2CC[C@H](C(F)F)CC2)nc(-n2ccnc2)n1 [Compound 168, N-((1r,4r)-4-(difluoromethyl)cyclohexyl)-2-(1H-imidazol-1-yl)-6-isopropylpyrimidine-4-carboxamide]
1580 | 352 | 8690 | O=C(Nc1ccc(C(F)(F)F)nc1)c1cc(-n2ccnc2)ccn1 [Compound 6, 4-(1H-imidazol-1-yl)-N-(6-(trifluoromethyl)pyridin-3-yl)picolinamide]
70 | 496 | 802 | Cc1ccc(C(=O)Nc2cccnc2)nc1-n1ccnc1 [Compound 22, 6-(1H-imidazol-1-yl)-5-methyl-N-(pyridin-3-yl)picolinamide]
13 | 22 | 1180 | Cn1cncc1-c1cncc(C(=O)N[C@H]2CC[C@H](C(F)F)CC2)n1 [Compound 92, N-((1r,4r)-4-(difluoromethyl)cyclohexyl)-6-(1-methyl-1H-imidazol-5-yl)pyrazine-2-carboxamide]
748 | 1140 | 9960 | O=C(NC12CC(O)(C1)C2)c1cccc(-n2ccnc2)n1 [Compound 15, N-(3-hydroxybicyclo[1.1.1]pentan-1-yl)-6-(1H-imidazol-1-yl)picolinamide]
8 | 9 | 365 | Cc1ccc(NC(=O)c2cccc(-n3ccnc3)n2)cn1 [Compound 20, 6-(1H-imidazol-1-yl)-N-(6-methylpyridin-3-yl)picolinamide]
15.4 | 31.5 | 2210 | Cn1cncc1-c1ccnc(C(=O)N[C@H]2CC[C@H](OC(F)F)CC2)n1 [Compound 275, N-((1r,4r)-4-(difluoromethoxy)cyclohexyl)-4-(1-methyl-1H-imidazol-5-yl)pyrimidine-2-carboxamide]
94.3 | 125 | 6270 | O=C(N[C@H]1CC[C@H](OC(F)(F)F)CC1)c1nccc(-n2ccnc2)n1 [Compound 308, 4-(1H-imidazol-1-yl)-N-((1r,4r)-4-(trifluoromethoxy)cyclohexyl)pyrimidine-2-carboxamide]
6 | 16 | 1320 | O=C(N[C@H]1CC[C@H](C(F)F)CC1)c1ccnc(-n2ccnc2)n1 [Compound 68, N-((1r,4r)-4-(difluoromethyl)cyclohexyl)-2-(1H-imidazol-1-yl)pyrimidine-4-carboxamide]
10.2 | 26.5 | 2790 | Cn1cncc1-c1ccnc(C(=O)N[C@H]2CC[C@H](OCc3ccccc3)CC2)n1 [Compound 312, N-((1r,4r)-4-(benzyloxy)cyclohexyl)-4-(1-methyl-1H-imidazol-5-yl)pyrimidine-2-carboxamide]
39.8 | 131 | 11100 | CO[C@H]1CC[C@H](NC(=O)c2cc(C3CCOCC3)nc(-n3ccnc3)n2)CC1 [Compound 193, 2-(1H-imidazol-1-yl)-N-((1r,4r)-4-methoxycyclohexyl)-6-(tetrahydro-2H-pyran-4-yl)pyrimidine-4-carboxamide]
2 | 2 | 335 | COc1cc(C(=O)Nc2ccc(C(F)F)nc2)nc(-n2ccnc2)n1 [Compound 127, N-(6-(difluoromethyl)pyridin-3-yl)-2-(1H-imidazol-1-yl)-6-methoxypyrimidine-4-carboxamide]
14.6 | 28.1 | 3720 | Cn1cncc1-c1ccnc(C(=O)N[C@H]2C[C@H](c3ccc(F)cc3F)C2)n1 [Compound 243, N-((1r,3r)-3-(2,4-difluorophenyl)cyclobutyl)-4-(1-methyl-1H-imidazol-5-yl)pyrimidine-2-carboxamide]
68 | 210 | 3570 | Cc1cc(C(=O)Nc2cccnc2)nc(-c2cncs2)c1 [Compound 35, 4-methyl-N-(pyridin-3-yl)-6-(thiazol-5-yl)picolinamide]
3 | 17 | 1620 | CO[C@H]1CC[C@H](NC(=O)c2cc(C)nc(-n3ccnc3)n2)CC1 [Compound 118, 2-(1H-imidazol-1-yl)-N-((1r,4r)-4-methoxycyclohexyl)-6-methylpyrimidine-4-carboxamide]
